Data published in patent US20180371404A1, “METABOLIC ENGINEERING OF MEMBRANE PROTEINS TO IMPROVE ESCHERICHIA COLI MEMBRANE INTEGRITY AND PRODUCTION OF FATTY ACIDS” (priority 2017, published 2018).
Where “and” joins values, the source holds several entries; their conditions need not be identical. Equal values may be shown once.

Key:
E. coli LY01 = details: cited from earlier work
BW25113 [1] = details: phenol at 50-75% of the MIC in LB at 37° C.; cited from earlier work
E. coli MG1655 [2] = details: 40 mM; cited from earlier work
E. coli MG1655 [3] = experiment: Octanoic acid tolerance characterization (specific growth rate); format: cell-based
Procedure: 2.2 Strain Tolerance Characterization: Octanoic acid tolerance was characterized in 50 ml MOPS defined minimal medium with 2.0% (wt/v) dextrose and 10 mM octanoic acid (1.44 g/L) in 250 ml baffled flasks at 220 rpm and initial pH at 7.0, 30° C. MOPS media contains the following: 8.37 g/L 3-(N-morpholino)propanesulfonic acid (MOPS), 0.72 g/L tricine, 2.92 g/L NaCl, 0.51 g/L NH4Cl, 1.6 g/L KOH, 50 mg/L MgCl2, 48 mg/L K2SO4, 348 mg/L K2HPO4, 0.215 mg/L Na2SeO3, 0.303 mg/L Na2MoO4.2H2O, 0.17 mg/L ZnCl2, 2.5 μg/L FeCl2.4H2O, 0.092 μg/L CaCl2.2H2O, 0.031 μg/L H3BO3, 0.020 μg/L MnCl2.4H2O, 0.0090 μg/L CoCl2.4H2O, and 0.0020 μg/L CuCl2.4H2O [43, 44]. Specific growth rate μ (h-1) was calculated by fitting the equation OD=OD0e^μt over the duration of the exponential growth phase. […] Dry cell weight (DCW) was calculated from the optical density at 550 nm (1 OD550=0.333 g DCW/L).

E. coli MG1655 [4] = experiment: Membrane integrity (SYTOX Green, flow cytometry) during C8 challenge; format: cell-based
Procedure: Membrane Integrity Characterization: Cells were centrifuged, washed twice, and then resuspended in PBS buffer (pH 7.0) at a final OD550 of ˜1. One hundred microliter (100 μl) of this suspension was mixed with 900 μl of PBS buffer and SYTOX Green (Invitrogen) was added to a final concentration of 5.0 μM. After resting at room temperature for 15 minutes, cells were analyzed by a BD Biosciences FACSCanto II flow cytometer equipped with standard factory-installed 488 nm excitation laser, signal collection optics, and fluorescence emission filter configuration. Instrument sheath fluid was filtered (0.22 μm) PBS buffer. Green fluorescence from stained cells was collected in the FL1 channel (525/50 nm). Forward scatter (FSC), side scatter (SSC), and FL1 (Green) parameters were collected as logarithmic signals. All data collections were performed at low flow rate setting (˜12 μl/min) and cell concentrations were such that the event rate was below 5,000 events/s. All samples were analyzed immediately after staining. Background noise and small debris was eliminated from data collection via a side scatter signal threshold that was established by examining samples containing only SYTOX Green staining buffer. Bacteria in SYTOX Green-stained samples were readily identified on the basis of FSC and SSC signals and an appropriate “Cell” gate was drawn to limit FL1 analysis to bacteria and exclude non-cell events. A minimum of 20,000 cell-gated events were collected for each sample. Green fluorescence data for these “cell” events were plotted as histograms showing the signal distribution of bacteria in the sample [14]. Flow cytometry data for this work is available via Flow Repository (https://flowrepository.org) (FR-FCM-ZY2B).

E. coli BW25113 = details: up to 20 mM C8, pH 7.0, 37° C.; cited from earlier work
E. coli Frag1 = details: 8 mM acetate; cited from earlier work
BW25113 [5] = details: 10 vol % hexane in LB at 37° C.; cited from earlier work
E. coli KO11 = details: cited from earlier work

Question: Which “concentration that inhibits growth completely” value (E. coli LY01) does the source give for O=Cc1ccco1 [Furfural] here?
Answer: The value was 3.5 g/L.

Question: Which “survival on deletion of fadL” value (BW25113 [1]) does the source give for Oc1ccccc1 [Phenol] here?
Answer: Its value is “Deletion of fadL from BW25113 had no impact on survival”.

Question: For CCCCCCCC(=O)O [C8, octanoic acid], which growth inhibition (E. coli MG1655 [2]) is on record?
Answer: Its growth inhibition is “completely inhibitory”.

Question: And the specific growth rate (E. coli MG1655 [3]; 10 mM C8, strain Gen-empty)?
Answer: Its specific growth rate is 0.31 h⁻¹.

Question: And the specific growth rate (E. coli MG1655 [3]; 10 mM C8, strain Gen-fadL)?
Answer: Its specific growth rate is 0.33 h⁻¹.

Question: What about the specific growth rate (E. coli MG1655 [3]; 10 mM C8, strain MG1655, MOPS+2% dextrose, 30° C., initial pH 7.0) of the same compound?
Answer: Its specific growth rate is 0.31 h⁻¹.

Question: What about the specific growth rate (E. coli MG1655 [3]; 10 mM C8, strain Pla-empty) of the same compound?
Answer: Its specific growth rate is 0.31 h⁻¹.

Question: And the specific growth rate (E. coli MG1655 [3]; 10 mM C8, strain Pla-fadL)?
Answer: The specific growth rate was 0.33 h⁻¹ and 0.32 h⁻¹.

Question: What about the specific growth rate (E. coli MG1655 [3]; 10 mM C8, strain ΔfadL) of the same compound?
Answer: The specific growth rate was 0.27 h⁻¹.

Question: And the specific growth rate (E. coli MG1655 [3]; 10 mM C8, strain ΔompF+Pla-fadL)?
Answer: Its specific growth rate is 0.36 h⁻¹.

Question: And the “specific growth rate, higher than control” value (E. coli MG1655 [3]; 10 mM C8, ΔompF+Pla-fadL vs Pla-empty)?
Answer: Its value is 18%.

Question: What about the “specific growth rate, higher than individual increased expression of fadL” value (E. coli MG1655 [3]; 10 mM C8, ΔompF+Pla-fadL vs Pla-fadL) of the same compound?
Answer: The value was 12%.

Question: And the “specific growth rate, higher than individual deletion of ompF” value (E. coli MG1655 [3]; 10 mM C8, ΔompF+Pla-fadL vs ΔompF+Pla-empty)?
Answer: Its value is 10%.

Question: And the “specific growth rate, higher than control” value (E. coli MG1655 [3]; C8 challenge, Gen-fadL vs Gen-empty)?
Answer: Its value is 7%.

Question: And the “specific growth rate, higher than control” value (E. coli MG1655 [3]; C8 challenge, Pla-fadL vs Pla-empty)?
Answer: The value was 8%.

Question: What about the “specific growth rate, lower than MG1655” value (E. coli MG1655 [3]; C8 challenge, ΔfadL vs MG1655) of the same compound?
Answer: Its value is 12%.

Question: What about the “specific growth rate, higher than MG1655” value (E. coli MG1655 [3]; C8 challenge, ΔompF vs MG1655) of the same compound?
Answer: Its value is 7%.

Question: And the “increase in membrane integrity” value (E. coli MG1655 [4]; 10 mM C8, Gen-fadL vs Gen-empty)?
Answer: Its value is 14%.

Question: And the “increase in membrane integrity” value (E. coli MG1655 [4]; 10 mM C8, Pla-fadL vs Pla-empty)?
Answer: The value was 25%.

Question: And the “percentage of cells with intact membranes, lower than MG1655” value (E. coli MG1655 [4]; 10 mM C8, ΔfadL vs MG1655)?
Answer: Its value is 23%.

Question: And the “increase in percentage of cells with intact membranes” value (E. coli MG1655 [4]; 10 mM C8, ΔompF vs wild-type control strain)?
Answer: The value was 18%.

Question: And the “increase in percentage of cells with intact membranes” value (E. coli MG1655 [4]; C8 challenge, ΔompF+Pla-fadL vs Pla-empty)?
Answer: The value was 37%.

Question: And the “magnitude of intracellular acidification on deletion of ompF” value (E. coli BW25113)?
Answer: The value was “assessed via the maximum OD. Deletion of ompF decreased the magnitude”.

Question: Which growth inhibition (E. coli MG1655 [2]) does the source give for CCCCCC(=O)O [hexanoic acid] here?
Answer: Its growth inhibition is “completely inhibitory”.

Question: Which “reduction of specific growth rate” value (E. coli Frag1) does the source give for CC(=O)O [acetate] here?
Answer: The value was 50%.

Question: For CCCCCC [Hexane], which “survival (assessed by OD) on deletion of fadL” value (BW25113 [5]) is on record?
Answer: Its value is “Deletion of fadL from BW25113 increased survival, as assessed by OD”.

Question: What does the source list for CCO [ethanol]?
Answer: growth (E. coli KO11; 35 g/L ethanol, engineered E. coli KO11): grows poorly; cells surviving challenge (E. coli KO11; 100 g/L ethanol, KO11): less than 10%
